In patent US9163003B2, “4-piperidinyl compounds for use as tankyrase inhibitors” (NOVARTIS AG, priority 2011, dated 2015):

Experiments:
[1] = test system: Wnt ligand-induced signaling; assay: Wnt-responsive Super-TOpFlash (STF) luciferase reporter gene assay in HEK293 cells; type: cell-based; conditions: Homo sapiens, Wnt3A condition medium induced
Method: Compound activity in inhibiting Wnt ligand-induced signaling was measured using a Wnt-responsive Super-TOpFlash (STF) luciferase reporter gene assay in HEK293 cells. On day 1 of the assay, cells were plated at a density of 8000 cells per well of 384-well plate in 25 μl medium containing 5% fetal bovine serum (FBS). On the second day, […] condition medium (CM) produced from mouse L cells was added to the cells to induce Wnt signaling, followed by addition of 5 μL of compounds each well in 10-point serial dilution. On the third day, the luciferase activity was measured by the Bright-Glo™ Luciferase Assay System following manufacture's protocol (Promega, E2620). The Inhibition was calculated as: (Maximum Wnt-induced signaling−Sample)/(Maximum Wnt-induced signaling−Background)*100. “Maximum Wnt-induced signaling” is the STF signal level induced by 20% Wnt3A CM without compound; and “Background” is the STF signal level without the addition of Wnt3A CM or compound.

[2] = molecular target: human tankyrase 1 PARP catalytic domain, TNKS1P (GST-tagged) (Homo sapiens (Human), UniProt O95271); assay: TNKS1 autoparsylation (AP) biochemical assay, LC/MS detection of nicotinamide; conditions: 20 nM enzyme, 250 μM NAD+, 60 min room temperature
Method: The human tankyrase 1 PARP catalytic domain, TNKS1P, was cloned into a pDONR221 vector using the Invitrogen Gateway Technology. This entry clone was then subcloned into the destination vector pDEST20 to obtain the N-terminal Glutathione S-transferase (GST)-tagged fusion protein.
The autoparsylation activity of the TNKS 1/2 or PARP1/2 enzymes was measured by the liquid chromatography-mass spectrometry (LC/MS) detection of nicotinamide as readout. Compound activity in inhibiting the TNKS and PARP autoparsylation was evaluated by IC50 measurements.

[3] = test system: Non-small lung cancer ABC-1 cells; assay: Cellular proliferation assay, ABC-1 cells (CellTiter-Glo); type: cell-based; conditions: Homo sapiens, 72 h, 3 days of compound treatment
Method: Non-small lung cancer ABC-1 cells were plated at 5000 cells per well in 96-well plates and treated with 8 serial compound dilutions starting from 10 μM as the highest concentration. Viable cells were measured after 3 days of compound treatment using the CellTiter-Glo assay (Promega, G7570). Assay was performed following the manufacture protocol.

[4] = test system: Axin2 protein; assay: Cellular ELISA assay for stabilizing the Axin2 protein in SW480 cells; type: cell-based; conditions: Homo sapiens, 24 hrs treatment, read-out: Axin AC50
Method: Compound activity in stabilizing the Axin2 protein was measured by Sandwich Enzyme-Linked Immuosorbent (ELISA) assay in the colorectal cell line SW480. 30,000 SW480 cells were seeded per well in 96-well plate and incubated overnight prior to compound treatment. Cells were then treated with compounds in 6-point dilution starting at 10 μM for 24 hrs. Cells were then washed with 100 μL of cold Phosphate Buffer Saline (PBS), and lysed in 125 μl of cold 1× lysis buffer (Cell Signaling Technology, 9803) supplemented with Protease inhibitor (Roche, 11836170) and Phosphatase inhibitors (Sigma, P2850, P5726). For the ELISA assay, anti Axin-2 capture antibody (Strategic Diagnostics) antibody was diluted to a concentration of 1 μg/ml (1:1000) in Carbonate Coating buffer, pH 9.2 (Sigma, C3041-50CAP). 100μ of the diluted anti Axin-2 capture antibody per well was then used to coat the 96-well ELISA plate (Thermo Electron Corp., MicroLite 1 flat bottom plate #7571) overnight at 4° C. Plates were then washed three times with 300 μl/well of wash solution, PBST20 (PBS+0.05% Tween), and blocked with 300 μl/well 1% BSA/PBS (BSA, Millipore Probumin #82-045-1) for 1.5 hours at room temperature while shaking gently. After blocking, plates were then washed three times with 300 μl/well of wash solution. 100 μL of prepared SW480 cell lysate was then added to each well and incubated at room temperature for 2 hours while shaking gently. After washing, 100 μL of Biotinylated anti-Axin2 antibody (CST, 2151) was added to each well and incubated room temperature for 2 hours. 100 μL of Streptavidin-HRP (R&D systems, DY998) diluted 1:200 in 1% BSA/PBS was then added in each well and incubate for 30 mins at R/T in the dark. Signal was detected by Chemiluminescence (Pierce SuperSignal ELISA Femto #3704), and measured on PerkinElmer Wallac 1420 plate reader.

[5] = molecular target: Human PARP1 (Homo sapiens (Human), UniProt P09874); assay: PARP1 autoparsylation biochemical assay, LC/MS detection of nicotinamide; conditions: read-out: PARP1 IC50, 20 nM enzyme, 250 μM NAD+, 60 min room temperature
[6] = molecular target: PARP2 (Mus musculus (Mouse), UniProt O88554); assay: PARP2 autoparsylation biochemical assay, LC/MS detection of nicotinamide; conditions: read-out: PARP2 Ic50, 20 nM enzyme, 250 μM NAD+, 60 min room temperature
[7] = molecular target: tankyrase 2 protein PARP domain, TNKS2P (GST-tagged) (Homo sapiens (Human), UniProt Q9H2K2); assay: TNKS2 autoparsylation (AP) biochemical assay, LC/MS detection of nicotinamide; conditions: 20 nM enzyme, 250 μM NAD+, 60 min room temperature
[8] = test system: Herpes Simplex Virus (HSV); conditions: cited from earlier work

Sequence of Human PARP1 (P09874 whole entry): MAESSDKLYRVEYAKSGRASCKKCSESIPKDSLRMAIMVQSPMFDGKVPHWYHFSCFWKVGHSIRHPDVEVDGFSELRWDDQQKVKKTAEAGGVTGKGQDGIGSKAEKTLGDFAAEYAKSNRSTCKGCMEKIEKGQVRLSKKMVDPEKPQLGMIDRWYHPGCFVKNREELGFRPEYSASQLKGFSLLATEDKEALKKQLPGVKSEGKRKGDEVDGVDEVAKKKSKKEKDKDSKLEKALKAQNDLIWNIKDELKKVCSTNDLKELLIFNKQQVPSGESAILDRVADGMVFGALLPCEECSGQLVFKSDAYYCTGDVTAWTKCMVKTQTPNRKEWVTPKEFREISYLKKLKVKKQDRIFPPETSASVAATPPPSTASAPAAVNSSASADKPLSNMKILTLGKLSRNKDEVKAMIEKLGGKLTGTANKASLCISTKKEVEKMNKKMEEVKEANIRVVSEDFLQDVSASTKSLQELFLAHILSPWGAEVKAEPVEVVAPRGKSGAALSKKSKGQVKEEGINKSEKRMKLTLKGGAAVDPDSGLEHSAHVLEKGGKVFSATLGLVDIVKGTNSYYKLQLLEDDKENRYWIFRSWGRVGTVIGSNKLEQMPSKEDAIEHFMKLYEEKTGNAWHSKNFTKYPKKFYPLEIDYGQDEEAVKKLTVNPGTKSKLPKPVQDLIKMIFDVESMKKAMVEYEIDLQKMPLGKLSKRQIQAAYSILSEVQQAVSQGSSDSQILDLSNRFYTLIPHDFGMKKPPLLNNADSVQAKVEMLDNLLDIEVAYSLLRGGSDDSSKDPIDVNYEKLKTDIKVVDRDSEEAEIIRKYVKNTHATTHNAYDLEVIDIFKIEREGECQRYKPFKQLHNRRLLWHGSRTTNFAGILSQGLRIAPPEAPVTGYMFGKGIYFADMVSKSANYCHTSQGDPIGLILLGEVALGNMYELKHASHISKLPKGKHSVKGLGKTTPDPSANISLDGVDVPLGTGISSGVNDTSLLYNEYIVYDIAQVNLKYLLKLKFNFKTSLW
Sequence of PARP2 (O88554 whole entry, the tested form may be a part): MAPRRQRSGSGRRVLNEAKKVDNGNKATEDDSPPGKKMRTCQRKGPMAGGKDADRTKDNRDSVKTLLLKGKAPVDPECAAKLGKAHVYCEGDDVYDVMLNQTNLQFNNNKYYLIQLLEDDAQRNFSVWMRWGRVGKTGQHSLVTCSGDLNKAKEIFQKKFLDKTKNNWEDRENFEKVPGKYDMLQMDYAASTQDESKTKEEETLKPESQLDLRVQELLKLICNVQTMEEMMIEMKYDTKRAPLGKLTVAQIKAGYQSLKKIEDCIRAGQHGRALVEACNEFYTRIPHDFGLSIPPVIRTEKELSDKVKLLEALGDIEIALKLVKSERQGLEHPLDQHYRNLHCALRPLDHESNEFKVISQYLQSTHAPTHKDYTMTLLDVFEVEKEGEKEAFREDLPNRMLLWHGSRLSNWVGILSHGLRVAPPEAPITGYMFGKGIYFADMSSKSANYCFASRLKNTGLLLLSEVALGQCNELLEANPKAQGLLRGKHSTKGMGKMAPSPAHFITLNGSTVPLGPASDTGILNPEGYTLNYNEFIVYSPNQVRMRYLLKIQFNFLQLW
Sequence of tankyrase 2 protein PARP domain, TNKS2P (GST-tagged) (Q9H2K2 959-1164): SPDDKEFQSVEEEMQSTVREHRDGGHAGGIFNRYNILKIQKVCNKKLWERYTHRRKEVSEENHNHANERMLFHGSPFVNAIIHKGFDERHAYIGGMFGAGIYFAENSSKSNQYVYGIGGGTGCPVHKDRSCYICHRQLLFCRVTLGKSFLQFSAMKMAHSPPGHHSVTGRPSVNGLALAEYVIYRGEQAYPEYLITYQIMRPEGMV
Sequence of human tankyrase 1 PARP catalytic domain, TNKS1P (GST-tagged) (O95271 1112-1317): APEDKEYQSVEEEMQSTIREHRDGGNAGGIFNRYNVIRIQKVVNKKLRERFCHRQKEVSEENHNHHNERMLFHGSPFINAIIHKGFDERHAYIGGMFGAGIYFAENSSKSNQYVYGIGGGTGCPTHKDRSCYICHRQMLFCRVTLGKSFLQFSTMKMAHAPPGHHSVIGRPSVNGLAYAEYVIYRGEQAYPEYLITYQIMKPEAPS

Structure (SMILES) | IC50 [1] [nM] | IC50 [2] [nM] | IC50 [3] [nM] | AC50 [4] [nM] | IC50 [5] [nM] | IC50 [6] [nM] | IC50 [7] [nM] | HSV viral growth [8] | HSV viral protein expression [8]
COc1ccc(C(=O)C2CCN([C@H]3CCN(Cc4nc5ccccc(=O)c5[nH]4)C3=O)CC2)cc1C [Example 28, 2-{(S)-3-[4-(4-Methoxy-3-methyl-benzoyl)-piperidin-1-yl]-2-oxo-pyrrolidin-1-ylmethyl}-3H-cycloheptaimidazol-4-one] | 1.5 ± 0.5 | 19.5 ± 3.5 | 0.8 ± 0.9 | 0.46 ± 0.2 | 20200 ± 1500 | 2900 ± 300 | 7 ± 1 | – | –
Oc1nc(-c2ccc(C(F)(F)F)cc2)nc2c1CSCC2 [XAV939] | – | – | – | – | – | – | – | decreased viral growth | suppressed HSV viral protein expression
